Results on 5 compounds are retold here after patent US20250205362A1, “LIPID NANOPARTICLES” (NATIONAL UNIVERSITY CORPORATION HOKKAIDO UNIVERSITY, priority 2022, published 2025).

Data set [1] is described as follows: Metabolic evaluation: lipid amount in the liver (LC/MS). The data set is classed as in vivo, mouse. The following applies: FIG. 4; Fluc mRNA-loaded LNP iv 0.5 mg mRNA/kg, BALB/c mice; 0.5, 4, 24 hours. How it is done:
For liquid chromatography-mass spectrometry (LC/MS) for lipid quantification, liver samples stored at −80° C. prior to analysis were used. Mice were intravenously injected with lipid nanoparticles (0.5 mg RNA/kg body weight) and then liver tissue was harvested.
The tissue was homogenized in 200 μL of water, and the resulting tissue homogenate (50 μL) was subjected to an extraction with 400 μL of acetonitrile/isopropanol (50:50 (v/v)). The extract was centrifuged (4000 rpm, 10 min), the supernatant was filtered, and the filtrate was diluted 50-fold with water/acetonitrile/isopropanol (1:8:8 (v/v)) and transferred to a vial for LC/MS analysis using an Accucore. LC/MS was performed under the following conditions. The parent lipids and their predicted metabolites were detected under optimized conditions. Each lipid molecule was monitored using the following masses: [M+H]^+->916 (CL4H6), 864 (CL4F6), 982 (CL4F10-b-7), 752 (CL4F10-e-2). […]
Specifically, lipid nanoparticles encapsulating Fluc mRNA (Fluc mRNA-loaded lipid nanoparticles) were intravenously injected into BALB/c mice (female, 4 weeks old) at a dose of 0.5 mg mRNA/kg body weight. The mice were euthanized 0.5 hours, 4 hours, or 24 hours after the intravenous injection, and the amount of lipid derived from each lipid nanoparticle in the liver was measured.

Data set [2] is described as follows: Encapsulation rate of lipid nanoparticles (Ribogreen). The data set is classed as physicochemical. How it is done:
The encapsulation rate of the lipid nanoparticles was calculated by measuring the amount of encapsulated nucleic acid (the amount of ssODN in the case of RNP-ssODN) using an RNA intercalator Ribogreen (manufactured by Life Technologies).

The nature of data set [3]: Average particle diameter, PdI and zeta potential of lipid nanoparticles (dynamic light scattering). The format is physicochemical. How it is done:
The mean particle diameter (number average value), ζ-mean particle diameter, and polydispersity index (PdI) of the lipid nanoparticles in PBS(−) (pH 7.4), as well as the zeta potential in 10 mM HEPES buffer (pH 7.4), were measured using an analyzing device, Zetasizer Nano ZS ZEN3600 (Malvern), which utilizes dynamic light scattering.

Data set [4] relates to factor 7 (F7). The following applies: knockdown of factor 7 (F7) in mouse liver; cited from earlier work.
The subject of data set [5] is sgTTR-G211-5FAM. The data set is described as follows: Tm value between sgRNA and ssODN by fluorescence quenching method. The data set is classed as physicochemical. The following applies: with sgTTR-G211-5FAM in Cas9 RNP; FIG. 21(B); n=3. How it is done:
To measure the Tm value between sgRNA and ssODN in the RNP complex using the fluorescence quenching method, a FAM-modified sgRNA whose 5′ end was modified with the fluorescent substance FAM and a 20-base-long IBFQ-modified ssODN whose 3′ end was modified with the quenching substance IBFQ were used.
Specifically, IBFQ-modified ssODN (5 equivalents relative to RNP) was added to Cas9 RNP containing FAM-modified sgRNA (final RNP concentration: 2.5 μM) to form an RNP-ssODN complex. The resulting solution (10 μL) was incubated at 10° C., after which the temperature was increased by 1° C. at 10 second intervals. The fluorescence intensity was measured at each temperature from 11 to 70° C. using a thermal cycler (“Dice® Real Time System III”, TaKaRa Bio Inc.). The temperature at which the fluorescence intensity was maximized was taken as the measured Tm value (° C.).

[6] abbreviates: TTR-RNP-ssODN-loaded LNP (ssODN-TTR_3-40%), cationic lipid/DSPC/cholesterol/PEG-DMG 50/10/40/3.5 mol%, Table 8.
Where [7] appears, read: Fluc mRNA-loaded LNP, comparison CL4F11-ζ-2, SM, ALC, MC3, Table 21.
Setting [8] is: Fluc mRNA-loaded LNP, lipid/DSPC/cholesterol/PEG-DMG 50/10/40/1.5 (MC3: 50/10/38.5/1.5) mol%, Table 15.
[9] abbreviates: TTR-RNP-ssODN-loaded LNP, comparison CL4F11-ζ-2, SM, ALC, MC3, Table 20.

{IBFQ} = Iowa Black FQ quencher

With `CCCCC(CC)CCCCC(=O)OCCCCCCC(O)(CCCCCCOC(=O)CCCCC(CC)CCCC)CCCCN(CCC)CCC` (stereo not shown) [CL4F10-e-2, 7-(4-(dipropylamino)butyl)-7-hydroxytridecane-1,13-diylbis(6-ethyldecanoate)], in data set [1], the “amount of lipid in the liver (metabolism)” value is reported as “most of it was degraded within 24 hours after administration”.
Take `CCCCCCCC/C=C\CCCCCCCC(=O)OCCCCCCC(O)(CCCCCCOC(=O)CCCCCCC/C=C\CCCCCCCC)CCCCN(C(C)C)C(C)C` [CL4H6, 7-(4-(diisopropylamino)butyl)-7-hydroxytridecane-1,13-diyl dioleate, reference compound]: in data set [2] (setting [6]), the Encapsulation rate came to 83.5%. In data set [3] (setting [6]), this compound came in with a Number-average particle diameter of 80.1 nm, a PdI of 0.254, a ζ-average of 136.5 nm and a ζ-potential of 2.83 mV. Moreover, in data set [1], the “amount of lipid in the liver (metabolism)” value is “almost completely disappeared from the liver 24 hours after administration”.
Regarding `CCCCC/C=C\C/C=C\CCCCCCCCC(CCCCCCCC/C=C\C/C=C\CCCCC)OC(=O)CCCN(C)C` [MC3, DLin-MC3-DMA, reference compound], the “ED50 in F7 knockdown” value in data set [4] is 0.005 mg siRNA/kg. Also, the Encapsulation rate was determined as 87.1% in data set [2] (setting [7]), 79.3% in data set [2] (setting [8]) and 78.7% in data set [2] (setting [9]). The Number-average particle diameter in data set [3] (setting [7]) is 71.0 nm; in data set [3] (setting [8]), 48.0 nm; in data set [3] (setting [9]), 82.7 nm. Further, the figures for the PdI in data set [3] (setting [7]), in data set [3] (setting [8]) and in data set [3] (setting [9]) were 0.190, 0.198 and 0.213, respectively. Also, the ζ-average in data set [3] (setting [7]) is 112.4 nm; in data set [3] (setting [8]) it was 68.6 nm; in data set [3] (setting [9]) it was 155.9 nm. For the same compound, the ζ-potential in data set [3] (setting [7]) is −2.17 mV; in data set [3] (setting [8]) it was 2.19 mV; in data set [3] (setting [9]), 0.52 mV.
Take “ssODN-40%-3IBFQ: IBFQ bound to the 3′ end of ssODN-40% (SEQ ID NO 23), 40% matched with the ssON-paired region (DNA AAAAAAAGACGTGGAAAATT; 3' {IBFQ}, sugars by position and backbone not given here)”: the “Tm value (fluorescence quenching)” value in data set [5] turned out to be 32 °C.
Same read-out and setting: the same measure for “ssODN-80%-3IBFQ: IBFQ bound to the 3′ end of ssODN-80% (SEQ ID NO 22), 80% matched with the ssON-paired region (DNA AACTGTAGACGTGGCTGTTT; 3' {IBFQ}, sugars by position and backbone not given here)”: 62 °C.
